# Results taken from US20230147468A1, “RECOMBINANT PEPTIDE TO TREAT FIRE BLIGHT” (INNATE IMMUNITY LLC, priority 2020, published 2023).
# No end group written: not given here.
# Assays:
# [1] = tested on: Erwinia amylovora (ATCC 49946); experiment: Minimum inhibitory concentration, serial dilutions of peptide; format: cell-based; conditions: for activity against Erwinia amylovora (MIC assay): Erwinia amylovora ATCC 49946, serial dilutions
# apple reference gene = experiment: Detached leaf assay, Ct of apple reference gene; format: in vivo; conditions: detached apple leaves treated with 28P-2
# Text: Water was used as a control.
# Ralstonia solanaeceum = format: cell-based; conditions: causes bacterial wilt in tomato
# Xanthomonas perforans = experiment: Minimum inhibitory concentration assay; format: cell-based; conditions: causes spot in tomato
# [2] = tested on: Xanthomonas euvesicatoria; experiment: Minimum inhibitory concentration assay; format: cell-based; conditions: causes spot in tomato
# Pseudomonas syringae = experiment: Minimum inhibitory concentration assay; format: cell-based; conditions: causes speck in tomato
sequence,measurement,setting,value
KEIVRRIEKFLRGPGRKRIVERIEKFLR [28P-8],activity against Erwinia amylovora (MIC assay),[1],active
KLIKLIKKILKKGPGRKLIKLIKKILKK [28P-4],activity against Erwinia amylovora (MIC assay),[1],active
KRIVQRIKDFLRGPGRKRIVQRIKDFLR [28P-2],level (Ct) of apple reference gene upon treatment,apple reference gene,remained unchanged
KVLSRVHAALKSIFDLGPGRKVLSRVHAALKSIFDL [36P],activity against Ralstonia solanaeceum,Ralstonia solanaeceum,significant activity
same,activity against Xanthomonas perforans,Xanthomonas perforans,significant activity
same,activity against Xanthomonas euvesicatoria,[2],significant activity
same,activity against Pseudomonas syringae,Pseudomonas syringae,significant activity
same,"toxicity to Erwinia amylovora by MIC, compared with 28P-2","[1]; 36P relative to 28P-2, FIG. 5",significantly more toxic
same,activity against Erwinia amylovora (MIC assay),[1],significant activity
